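These data come from cells grown in 96-well plates and exposed to compound for 48 hours at five concentrations. GI50: concentration for 50% inhibition of growth.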 Activity calls are given as the source filed them. Cut-off read from the data, not from the text of the source: active = GI50 up to about 1.1 µM and inactive = higher.
Assays:
Test in all cases: growth of human tumour cells (NCI), 48 h
786-0 = tested on: 786-0
A498 = tested on: A498
A549 = tested on: A549
ACHN = tested on: ACHN
CAKI-1 = tested on: CAKI-1
CCRF-CEM = tested on: CCRF-CEM
COLO 205 = tested on: COLO 205
DU-145 = tested on: DU-145
EKVX = tested on: EKVX
HCC 2998 = tested on: HCC 2998
HCT-116 = tested on: HCT-116
HCT-15 = tested on: HCT-15
HL-60 = tested on: HL-60
HOP-62 = tested on: HOP-62
HOP-92 = tested on: HOP-92
HT-29 = tested on: HT-29
Hs-578T = tested on: Hs-578T
IGROV-1 = tested on: IGROV-1
K562 = tested on: K562
KM12 = tested on: KM12
LOX IMVI = tested on: LOX IMVI
M14 = tested on: M14
MCF7 = tested on: MCF7
MDA-MB-231 = tested on: MDA-MB-231
MDA-MB-435 = tested on: MDA-MB-435
MDA-N = tested on: MDA-N
MOLT-4 = tested on: MOLT-4
Malme-3M = tested on: Malme-3M
NCI-H226 = tested on: NCI-H226
NCI-H23 = tested on: NCI-H23
NCI-H460 = tested on: NCI-H460
NCI-H522 = tested on: NCI-H522
NCI/ADR-RES = tested on: NCI/ADR-RES
OVCAR-3 = tested on: OVCAR-3
OVCAR-4 = tested on: OVCAR-4
OVCAR-5 = tested on: OVCAR-5
OVCAR-8 = tested on: OVCAR-8
PC-3 = tested on: PC-3
RPMI-8226 = tested on: RPMI-8226
RXF 393 = tested on: RXF 393
SF-268 = tested on: SF-268
SF-295 = tested on: SF-295
SF-539 = tested on: SF-539
SK-MEL-28 = tested on: SK-MEL-28
SK-MEL-2 = tested on: SK-MEL-2
SK-MEL-5 = tested on: SK-MEL-5
SK-OV-3 = tested on: SK-OV-3
SN12C = tested on: SN12C
SNB-19 = tested on: SNB-19
SNB-75 = tested on: SNB-75
SR = tested on: SR
T47D = tested on: T47D
TK-10 = tested on: TK-10
U-251 = tested on: U-251
UACC-257 = tested on: UACC-257
UO-31 = tested on: UO-31
SW-620 = tested on: SW-620
UACC-62 = tested on: UACC-62

For `O=[N+]([O-])c1cc(C2ON=C(c3ccccc3)N2C23CC4CC(CC(C4)C2)C3)ccc1Cl` (stereo not drawn), the GI50 (786-0) was > 100 µM (inactive), the GI50 (A498) was > 100 µM (inactive) and the GI50 (A549) was > 100 µM (inactive). The GI50 (ACHN) was > 100 µM (inactive), the GI50 (CAKI-1) was > 100 µM (inactive) and the GI50 (CCRF-CEM) was > 100 µM (inactive). For the same molecule, the GI50 (COLO 205) was > 100 µM (inactive), the GI50 (DU-145) was > 100 µM (inactive) and the GI50 (EKVX) was > 100 µM (inactive). The GI50 (HCC 2998) was > 100 µM (inactive), the GI50 (HCT-116) was 73.5 µM (inactive) and the GI50 (HCT-15) was over 100 µM. For the same molecule, the GI50 (HL-60) was > 100 µM (inactive), the GI50 (HOP-62) was > 100 µM (inactive) and the GI50 (HOP-92) was > 100 µM (inactive). The GI50 (HT-29) was > 100 µM (inactive), the GI50 (Hs-578T) was > 100 µM (inactive) and the GI50 (IGROV-1) was > 100 µM (inactive). For the same molecule, the GI50 (K562) was > 100 µM (inactive), the GI50 (KM12) was > 100 µM (inactive) and the GI50 (LOX IMVI) was > 100 µM (inactive). For the same molecule, the GI50 (M14) was > 100 µM (inactive), the GI50 (MCF7) was 2.74 µM (inactive) and the GI50 (MDA-MB-231) was > 100 µM (inactive). The GI50 (MDA-MB-435) was > 100 µM (inactive), the GI50 (MDA-N) was > 100 µM (inactive) and the GI50 (MOLT-4) was > 100 µM (inactive). For the same molecule, the GI50 (Malme-3M) was > 100 µM (inactive), the GI50 (NCI-H226) was 49.5 µM (inactive) and the GI50 (NCI-H23) was > 100 µM (inactive). The GI50 (NCI-H460) was > 100 µM (inactive), the GI50 (NCI-H522) was > 100 µM (inactive) and the GI50 (NCI/ADR-RES) was > 100 µM (inactive). For the same molecule, the GI50 (OVCAR-3) was > 100 µM (inactive), the GI50 (OVCAR-4) was > 100 µM (inactive) and the GI50 (OVCAR-5) was > 100 µM (inactive). For the same molecule, the GI50 (OVCAR-8) was > 100 µM (inactive), the GI50 (PC-3) was > 100 µM (inactive) and the GI50 (RPMI-8226) was > 100 µM (inactive). The GI50 (RXF 393) was > 100 µM (inactive), the GI50 (SF-268) was > 100 µM (inactive) and the GI50 (SF-295) was > 100 µM (inactive). The GI50 (SF-539) was > 100 µM (inactive), the GI50 (SK-MEL-28) was > 100 µM (inactive) and the GI50 (SK-MEL-2) was > 100 µM (inactive). The GI50 (SK-MEL-5) was > 100 µM (inactive), the GI50 (SK-OV-3) was > 100 µM (inactive) and the GI50 (SN12C) was > 100 µM (inactive). The GI50 (SNB-19) was > 100 µM (inactive), the GI50 (SNB-75) was 15.5 µM (inactive) and the GI50 (SR) was > 100 µM (inactive). For the same molecule, the GI50 (T47D) was > 100 µM (inactive), the GI50 (TK-10) was > 100 µM (inactive) and the GI50 (U-251) was > 100 µM (inactive). For the same molecule, the GI50 (UACC-257) was > 100 µM (inactive) and the GI50 (UO-31) was > 100 µM (inactive).
For `O=c1cc(-c2ccccc2)nc2[nH]ccn12`, the GI50 (A498) was > 10 µM (inactive), the GI50 (A549) was > 10 µM (inactive) and the GI50 (ACHN) was > 10 µM (inactive). The GI50 (CAKI-1) was > 10 µM (inactive), the GI50 (CCRF-CEM) was > 10 µM (inactive) and the GI50 (COLO 205) was > 10 µM (inactive). The GI50 (DU-145) was > 10 µM (inactive), the GI50 (EKVX) was > 10 µM (inactive) and the GI50 (HCC 2998) was > 10 µM (inactive). The GI50 (HCT-116) was > 10 µM (inactive), the GI50 (HCT-15) was over 10 µM and the GI50 (HL-60) was > 10 µM (inactive). The GI50 (HOP-62) was > 10 µM (inactive), the GI50 (HT-29) was > 10 µM (inactive) and the GI50 (Hs-578T) was > 10 µM (inactive). The GI50 (IGROV-1) was > 10 µM (inactive), the GI50 (K562) was > 10 µM (inactive) and the GI50 (KM12) was > 10 µM (inactive). The GI50 (LOX IMVI) was > 10 µM (inactive), the GI50 (M14) was > 10 µM (inactive) and the GI50 (MCF7) was > 10 µM (inactive). The GI50 (MDA-MB-231) was > 10 µM (inactive), the GI50 (MDA-MB-435) was > 10 µM (inactive) and the GI50 (MDA-N) was > 10 µM (inactive). For the same molecule, the GI50 (MOLT-4) was > 10 µM (inactive), the GI50 (Malme-3M) was > 10 µM (inactive) and the GI50 (NCI-H226) was > 10 µM (inactive). For the same molecule, the GI50 (NCI-H23) was > 10 µM (inactive), the GI50 (NCI-H460) was > 10 µM (inactive) and the GI50 (NCI-H522) was > 10 µM (inactive). The GI50 (NCI/ADR-RES) was > 10 µM (inactive), the GI50 (OVCAR-3) was > 10 µM (inactive) and the GI50 (OVCAR-4) was > 10 µM (inactive). For the same molecule, the GI50 (OVCAR-5) was > 10 µM (inactive), the GI50 (OVCAR-8) was > 10 µM (inactive) and the GI50 (PC-3) was > 10 µM (inactive). For the same molecule, the GI50 (RPMI-8226) was > 10 µM (inactive), the GI50 (RXF 393) was > 10 µM (inactive) and the GI50 (SF-268) was > 10 µM (inactive). The GI50 (SF-295) was > 10 µM (inactive), the GI50 (SF-539) was > 10 µM (inactive) and the GI50 (SK-MEL-28) was > 10 µM (inactive). The GI50 (SK-MEL-2) was > 10 µM (inactive), the GI50 (SK-MEL-5) was > 10 µM (inactive) and the GI50 (SK-OV-3) was > 10 µM (inactive). The GI50 (SN12C) was > 10 µM (inactive), the GI50 (SNB-19) was > 10 µM (inactive) and the GI50 (SNB-75) was 6.25 µM (inactive). The GI50 (SR) was > 10 µM (inactive), the GI50 (SW-620) was > 10 µM (inactive) and the GI50 (T47D) was > 10 µM (inactive). The GI50 (TK-10) was > 10 µM (inactive), the GI50 (U-251) was > 10 µM (inactive) and the GI50 (UACC-62) was > 10 µM (inactive). For the same molecule, the GI50 (UO-31) was 7.87 µM (inactive).
For `C/C(CC(O)(C(F)(F)F)C(F)(F)F)=N\NC(N)=O`, the GI50 (786-0) was > 10 µM (inactive), the GI50 (A498) was > 10 µM (inactive) and the GI50 (A549) was > 10 µM (inactive). The GI50 (ACHN) was > 10 µM (inactive), the GI50 (CAKI-1) was > 10 µM (inactive) and the GI50 (CCRF-CEM) was > 10 µM (inactive). The GI50 (COLO 205) was > 10 µM (inactive), the GI50 (DU-145) was > 10 µM (inactive) and the GI50 (EKVX) was > 10 µM (inactive). The GI50 (HCC 2998) was > 10 µM (inactive), the GI50 (HCT-116) was > 10 µM (inactive) and the GI50 (HCT-15) was over 10 µM. The GI50 (HL-60) was > 10 µM (inactive), the GI50 (HOP-62) was > 10 µM (inactive) and the GI50 (HOP-92) was > 10 µM (inactive). For the same molecule, the GI50 (HT-29) was > 10 µM (inactive), the GI50 (Hs-578T) was > 10 µM (inactive) and the GI50 (IGROV-1) was > 10 µM (inactive). For the same molecule, the GI50 (K562) was > 10 µM (inactive), the GI50 (KM12) was > 10 µM (inactive) and the GI50 (LOX IMVI) was > 10 µM (inactive). The GI50 (M14) was > 10 µM (inactive), the GI50 (MCF7) was > 10 µM (inactive) and the GI50 (MDA-MB-231) was > 10 µM (inactive). For the same molecule, the GI50 (MDA-MB-435) was > 10 µM (inactive), the GI50 (MDA-N) was > 10 µM (inactive) and the GI50 (MOLT-4) was > 10 µM (inactive). For the same molecule, the GI50 (Malme-3M) was > 10 µM (inactive), the GI50 (NCI-H226) was > 10 µM (inactive) and the GI50 (NCI-H23) was > 10 µM (inactive). The GI50 (NCI-H460) was > 10 µM (inactive), the GI50 (NCI-H522) was > 10 µM (inactive) and the GI50 (NCI/ADR-RES) was > 10 µM (inactive). The GI50 (OVCAR-3) was > 10 µM (inactive), the GI50 (OVCAR-4) was > 10 µM (inactive) and the GI50 (OVCAR-8) was > 10 µM (inactive). The GI50 (PC-3) was > 10 µM (inactive), the GI50 (RPMI-8226) was > 10 µM (inactive) and the GI50 (RXF 393) was > 10 µM (inactive). For the same molecule, the GI50 (SF-268) was > 10 µM (inactive), the GI50 (SF-295) was > 10 µM (inactive) and the GI50 (SF-539) was > 10 µM (inactive). The GI50 (SK-MEL-28) was > 10 µM (inactive), the GI50 (SK-MEL-2) was > 10 µM (inactive) and the GI50 (SK-MEL-5) was > 10 µM (inactive). For the same molecule, the GI50 (SK-OV-3) was > 10 µM (inactive), the GI50 (SN12C) was > 10 µM (inactive) and the GI50 (SNB-19) was > 10 µM (inactive). The GI50 (SNB-75) was > 10 µM (inactive), the GI50 (SR) was > 10 µM (inactive) and the GI50 (SW-620) was > 10 µM (inactive). The GI50 (T47D) was > 10 µM (inactive), the GI50 (TK-10) was > 10 µM (inactive) and the GI50 (U-251) was > 10 µM (inactive). The GI50 (UACC-257) was > 10 µM (inactive), the GI50 (UACC-62) was > 10 µM (inactive) and the GI50 (UO-31) was > 10 µM (inactive).

— ChEMBL document CHEMBL1201862, “PubChem BioAssay data set” (2004)
